This note sets out measurements from US20240368159A1, “HPK1 DEGRADERS, COMPOSITIONS COMPRISING THE HPK1 DEGRADER, AND METHODS OF USING THE SAME” (BIOFRONT LTD, priority 2021, published 2024).

Some results are limits rather than exact numbers.

The test addresses T1, HPK1 protein (Homo sapiens, UniProt Q92918).
T1 construct: purchased Signal Chem M23-11G-10
T1 sequence (Q92918 1-346 limits assumed): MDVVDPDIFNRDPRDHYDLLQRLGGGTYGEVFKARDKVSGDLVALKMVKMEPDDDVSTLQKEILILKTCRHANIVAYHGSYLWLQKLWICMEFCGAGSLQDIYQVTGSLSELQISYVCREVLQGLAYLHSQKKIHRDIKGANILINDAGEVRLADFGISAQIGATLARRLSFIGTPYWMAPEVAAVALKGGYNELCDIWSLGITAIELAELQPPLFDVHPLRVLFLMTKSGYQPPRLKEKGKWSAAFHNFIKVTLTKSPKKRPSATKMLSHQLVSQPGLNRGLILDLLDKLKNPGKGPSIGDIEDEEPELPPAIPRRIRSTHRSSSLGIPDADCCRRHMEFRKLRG
In words: HPK1 enzyme inhibition assay (ADP-Glo). The test is classed as biochemical. The settings on record: MBP substrate, ATP, ADP-Glo readout. The procedure: The compound was dissolved in 100% DMSO at the concentration of 10 mM. The HPK1 protein was purchased from Signal Chem (M23-11G-10). 2.5 μL per well of 2×HPK1 protein was added to assay plate containing the test compound, centrifuged at 1500 rpm for 1 minute, and then incubated at 25° C. for 60 minutes. MBP protein was purchased from Signal Chem (M42-51N) and ATP was purchased from Promega (V9102). The two were added 2.5 μL per well mixture of 2×MBP (0.2 ug/ul) and ATP (20 μM), centrifuged at 1500 rpm for 1 minute, then incubated at 25° C. for 60 minutes. Then added 5 μL of ADP-Glo from Promega (V9102) to the assay plate and depleted the unconsumed ATP for 60 minutes. Then centrifuged at 1500 rpm for 1 minute and incubated at 25° C. for 60 minutes. Finally, 10 μL of the kinase assay reagent from Promega (V9102) was added to the assay plate to convert ADP to ATP, centrifuged at 1500 rpm for 1 minute, incubate at 25° C. for 40 minutes. After 40 minutes incubation, the […] was determined. Based on the results, the IC50 value of the compound was calculated.
In general terms: In ADP-Glo the light output rises with the ADP produced.
As a reminder, the IC50 is the midpoint of a concentration-inhibition curve. Higher therefore signals weaker potency. `CCc1c[nH]c2ncc(-c3cccc(N4CCN(C(=O)CCCCCCCOc5cccc6c5C(=O)N(C5CCC(=O)NC5=O)C6=O)CC4=O)c3)c(Cl)c12` (stereo not drawn) [Example 9, 4-((8-(4-(3-(4-chloro-3-ethyl-1H-pyrrolo[2,3-b]pyridin-5-yl)phenyl)-3-oxopiperazin-1-yl)-8-oxooctyl)oxy)-2-(2,6-dioxopiperidin-3-yl)isoindoline-1,3-dione] displayed an IC50 of 10 to 100 nM.

Turning to `O=C1CCC(N2C(=O)c3ccc(CCN4CCC(OC(=O)N5CCN(c6cccc(-c7cnc8[nH]cc(C9CC9)c8c7Cl)c6)C(=O)C5)CC4)cc3C2=O)C(=O)N1` (stereo not drawn) [Example 98, 1-(2-(2-(2,6-dioxopiperidin-3-yl)-1,3-dioxoisoindolin-5-yl)ethyl)piperidin-4-yl 4-(3-(4-chloro-3-cyclopropyl-1H-pyrrolo[2,3-b]pyridin-5-yl)phenyl)-3-oxopiperazine-1-carboxylate], the IC50 lay in the range of 10 to 100 nM.

In the case of `CCc1c[nH]c2ncc(-c3cccc(N4CCN(C(=O)CCCCCCCCCOc5cccc6c5CN(C5CCC(=O)NC5=O)C6=O)CC4=O)c3)c(Cl)c12` (stereo not drawn) [Example 7, 3-(4-((10-(4-(3-(4-chloro-3-ethyl-1H-pyrrolo[2,3-b]pyridin-5-yl)phenyl)-3-oxopiperazin-1-yl)-10-oxodecyl)oxy)-1-oxoisoindolin-2-yl)piperidine-2,6-dione], the IC50 was in the range of 100 to 1000 nM.

`CCc1c[nH]c2ncc(-c3cccc(N4CCN(C(=O)CCCCCCCN(C)c5cccc6c5CN(C5CCC(=O)NC5=O)C6=O)CC4=O)c3)c(Cl)c12` (stereo not drawn) [Example 11, 3-(4-((8-(4-(3-(4-chloro-3-ethyl-1H-pyrrolo[2,3-b]pyridin-5-yl)phenyl)-3-oxopiperazin-1-yl)-8-oxooctyl)(methyl)amino)-1-oxoisoindolin-2-yl)piperidine-2,6-dione] yielded an IC50 of 100 to 1000 nM.

`CCc1c[nH]c2ncc(-c3cccc(N4CCN(C(=O)CCCCCOc5cccc6c5CN(C5CCC(=O)NC5=O)C6=O)CC4=O)c3)c(Cl)c12` (stereo not drawn) [Example 5, 3-(4-((6-(4-(3-(4-chloro-3-ethyl-1H-pyrrolo[2,3-b]pyridin-5-yl)phenyl)-3-oxopiperazin-1-yl)-6-oxohexyl)oxy)-1-oxoisoindolin-2-yl)piperidine-2,6-dione] yielded an IC50 of 10 to 100 nM.

Turning to `CCc1c[nH]c2ncc(-c3cccc(N4CCN(C(=O)COC5CN(c6cccc7c6C(=O)N(C6CCC(=O)NC6=O)C7=O)C5)CC4=O)c3)c(Cl)c12` (stereo not drawn) [Example 18, 4-(3-(2-(4-(3-(4-chloro-3-ethyl-1H-pyrrolo[2,3-b]pyridin-5-yl)phenyl)-3-oxopiperazin-1-yl)-2-oxoethoxy)azetidin-1-yl)-2-(2,6-dioxopiperidin-3-yl)isoindoline-1,3-dione], the IC50 lay within 10 to 100 nM.

`CCc1c[nH]c2ncc(-c3cccc(N4CCN(Cc5ccc6c(c5)C(=O)N(C5CCC(=O)NC5=O)C6=O)CC4=O)c3)c(Cl)c12` (stereo not drawn) [Example 90, 5-((4-(3-(4-chloro-3-ethyl-1H-pyrrolo[2,3-b]pyridin-5-yl)phenyl)-3-oxopiperazin-1-yl)methyl)-2-(2,6-dioxopiperidin-3-yl)isoindoline-1,3-dione] had an IC50 of 10 to 100 nM.

`CCc1c[nH]c2ncc(-c3cccc(N4CCN(CC(=O)N5CCN(c6ccc7c(c6)C(=O)N(C6CCC(=O)NC6=O)C7=O)CC5)CC4=O)c3)c(Cl)c12` (stereo not drawn) [Example 34, 5-(4-(2-(4-(3-(4-chloro-3-ethyl-1H-pyrrolo[2,3-b]pyridin-5-yl)phenyl)-3-oxopiperazin-1-yl)acetyl)piperazin-1-yl)-2-(2,6-dioxopiperidin-3-yl)isoindoline-1,3-dione]: the IC50 fell in the range of 10 to 100 nM.

The compound `CCc1c[nH]c2ncc(-c3cccc(N4CCN(C(=O)CCCCCOc5ccc6c(c5)C(=O)N(C5CCC(=O)NC5=O)C6)CC4=O)c3)c(Cl)c12` (stereo not drawn) [Example 68, 3-(6-((6-(4-(3-(4-chloro-3-ethyl-1H-pyrrolo[2,3-b]pyridin-5-yl)phenyl)-3-oxopiperazin-1-yl)-6-oxohexyl)oxy)-1-oxoisoindolin-2-yl)piperidine-2,6-dione] yielded an IC50 of 10 to 100 nM.

With `CCc1c[nH]c2ncc(-c3cccc(N4CCN(C(=O)CCCOc5cccc6c5CN(C5CCC(=O)NC5=O)C6=O)CC4=O)c3)c(Cl)c12` (stereo not drawn) [Example 4, 3-(4-(4-(4-(3-(4-chloro-3-ethyl-1H-pyrrolo[2,3-b]pyridin-5-yl)phenyl)-3-oxopiperazin-1-yl)-4-oxobutoxy)-1-oxoisoindolin-2-yl)piperidine-2,6-dione], the IC50 lay in the range of 10 to 100 nM.

Take `CCc1c[nH]c2ncc(-c3cccc(N4CCN(CCNc5ccc6c(c5)C(=O)N(C5CCC(=O)NC5=O)C6=O)CC4=O)c3)c(Cl)c12` (stereo not drawn) [Example 60, 5-((2-(4-(3-(4-chloro-3-ethyl-1H-pyrrolo[2,3-b]pyridin-5-yl)phenyl)-3-oxopiperazin-1-yl)ethyl)amino)-2-(2,6-dioxopiperidin-3-yl)isoindoline-1,3-dione]: the concentration for half-maximal inhibition (IC50) was in the range of 10 to 100 nM.

In the case of `CCc1c[nH]c2ncc(-c3cccc(N4CCN(C(=O)CCCCCCCOc5ccc6c(c5)C(=O)N(C5CCC(=O)NC5=O)C6)CC4=O)c3)c(Cl)c12` (stereo not drawn) [Example 65, 3-(6-((8-(4-(3-(4-chloro-3-ethyl-1H-pyrrolo[2,3-b]pyridin-5-yl)phenyl)-3-oxopiperazin-1-yl)-8-oxooctyl)oxy)-1-oxoisoindolin-2-yl)piperidine-2,6-dione], the IC50 is 10 to 100 nM.

Regarding `CCc1c[nH]c2ncc(-c3cccc(N4CCN(CCc5ccc6c(c5)C(=O)N(C5CCC(=O)NC5=O)C6=O)CC4=O)c3)c(Cl)c12` (stereo not drawn) [Example 97, 5-(2-(4-(3-(4-chloro-3-ethyl-1H-pyrrolo[2,3-b]pyridin-5-yl)phenyl)-3-oxopiperazin-1-yl)ethyl)-2-(2,6-dioxopiperidin-3-yl)isoindoline-1,3-dione], the IC50 was ≤ 10 nM.

Regarding `CCc1c[nH]c2ncc(-c3cccc(N4CCN(C(=O)CCCCCCCNc5cccc6c5CN(C5CCC(=O)NC5=O)C6=O)CC4=O)c3)c(Cl)c12` (stereo not drawn) [Example 10, 3-(4-((8-(4-(3-(4-chloro-3-ethyl-1H-pyrrolo[2,3-b]pyridin-5-yl)phenyl)-3-oxopiperazin-1-yl)-8-oxooctyl)amino)-1-oxoisoindolin-2-yl)piperidine-2,6-dione], the half-inhibitory concentration (IC50) lay in the range of 100 to 1000 nM.

`CCc1c[nH]c2ncc(-c3cccc(N4CCN(C(=O)CCCN(C)c5cccc6c5CN(C5CCC(=O)NC5=O)C6=O)CC4=O)c3)c(Cl)c12` (stereo not drawn) [Example 15, 3-(4-((4-(4-(3-(4-chloro-3-ethyl-1H-pyrrolo[2,3-b]pyridin-5-yl)phenyl)-3-oxopiperazin-1-yl)-4-oxobutyl)(methyl)amino)-1-oxoisoindolin-2-yl)piperidine-2,6-dione] returned a half-maximal inhibitory concentration (IC50) of 10 to 100 nM.

On to `CCc1c[nH]c2ncc(-c3cccc(N4CCN(CCNC(=O)C5CCN(c6ccc7c(c6)C(=O)N(C6CCC(=O)NC6=O)C7=O)CC5)CC4=O)c3)c(Cl)c12` (stereo not drawn) [Example 37], for which the IC50 is > 1000 nM.

As for `CCc1c[nH]c2ncc(-c3cccc(N4CCN(C(=O)CCN5CCN(c6cccc7c6C(=O)N(C6CCC(=O)NC6=O)C7=O)CC5)CC4=O)c3)c(Cl)c12` (stereo not drawn) [Example 20, 4-(4-(3-(4-(3-(4-chloro-3-ethyl-1H-pyrrolo[2,3-b]pyridin-5-yl)phenyl)-3-oxopiperazin-1-yl)-3-oxopropyl)piperazin-1-yl)-2-(2,6-dioxopiperidin-3-yl)isoindoline-1,3-dione], the IC50 lay in the range of 10 to 100 nM.

For the compound `O=C1CCN(c2cnc3cc(C4CCN(CCCN5CCN(c6cccc(-c7cnc8[nH]cc(C9CC9)c8c7Cl)c6)C(=O)C5)CC4)ccn23)C(=O)N1` [Example 96, 1-(7-(1-(3-(4-(3-(4-chloro-3-cyclopropyl-1H-pyrrolo[2,3-b]pyridin-5-yl)phenyl)-3-oxopiperazin-1-yl)propyl)piperidin-4-yl)imidazo[1,2-a]pyridin-3-yl)dihydro pyrimidine-2,4 (1H,3H)-dione], the IC50 was ≤ 10 nM.

In the case of `CCc1c[nH]c2ncc(-c3cccc(N4CCN(C(=O)CCCCCN(C)c5cccc6c5CN(C5CCC(=O)NC5=O)C6=O)CC4=O)c3)c(Cl)c12` (stereo not drawn) [Example 14, 3-(4-((6-(4-(3-(4-chloro-3-ethyl-1H-pyrrolo[2,3-b]pyridin-5-yl)phenyl)-3-oxopiperazin-1-yl)-6-oxohexyl)(methyl)amino)-1-oxoisoindolin-2-yl)piperidine-2,6-dione], the half-maximal inhibitory concentration (IC50) lay within 10 to 100 nM.

With `CCc1c[nH]c2ncc(-c3cccc(N4CCN(C(=O)COc5cccc6c5CN(C5CCC(=O)NC5=O)C6=O)CC4=O)c3)c(Cl)c12` (stereo not drawn) [Example 3], the IC50 is ≤ 10 nM.

`CCc1c[nH]c2ncc(-c3cccc(N4CCN(C(=O)CCOCCOCc5cn(-c6cccc7c6CN(C6CCC(=O)NC6=O)C7=O)nn5)CC4=O)c3)c(Cl)c12` (stereo not drawn) [Example 13, 3-(4-(4-((2-(3-(4-(3-(4-chloro-3-ethyl-1H-pyrrolo[2,3-b]pyridin-5-yl)phenyl)-3-oxopiperazin-1-yl)-3-oxopropoxy)ethoxy)methyl)-1H-1,2,3-triazol-1-yl)-1-oxoisoindolin-2-yl)piperidine-2,6-dione] gave an IC50 of 10 to 100 nM.
